Source: US20220401428A1, “Method for Treatment of Alzheimer's Disease” (University of Kentucky Research Foundation, priority 2019, published 2022)
Entries after “also recorded” stand apart in the source; their conditions may differ.

Key:
LRP1 mRNA = LRP1 mRNA levels in ECs by qRT-PCR; assay type: cell-based; conditions: 10 μM, vs control cells and ECs incubated with rat amylin
From the text: (§1) Total RNA was isolated using RNAqueous total RNA isolation kit according to manufacturer's protocol (Invitrogen, AM1914). cDNA synthesis and amplification were done using iTaq Universal SYBR Green One-Step Kit (Biorad; 1725151) with the following primer sequences: LRP1: forward (Fwd) 5′-[…]-3′(SEQ ID NO: 7), reverse (Rev) 5′-[…]-3′(SEQ ID NO: 8); and GAPDH: Fwd 5′- […]-3′(SEQ ID NO: 9), Rev 5′-GTTTGCTCCAACCAACTGC-3′(SEQ ID NO: 10) (IDT, Inc, USA). For miRNA quantification, cDNA was synthesized from total RNA using miRNA cDNA synthesis kit with poly (A) polymerase (ABMgood, G902). cDNA was amplified using SYBR Green mastermix (Biorad) along with miRNA specific primers from (rno-miR-103-3p, MPR00332; rno-miR-107-3p, MPRO0335; RNU6 house Keeping gene, MP-r99998) (ABMgood). Data were analyzed using the 2^−ΔΔCt method, and experiments were normalized to GAPDH or U6 miRNA

LRP1 = LRP1 protein expression in rat brain microvascular ECs (Western blot, immunofluorescence); assay type: cell-based; conditions: ECs, 24 hours, Western blot
From the text: To study the role of miRNA signaling in amylin-induced suppression of endothelial LRP1 expression, transfection of rat brain microvascular ECs was used with miR-103-3p (MCR01039)[…](SEQ ID NO: 5), miR-107-3p (MCR01045)[…](SEQ ID NO: 6) and control (MCH00000) (https://www.abmgood.com/mirna-mimic-negative-control-mch00000.html). Antagomir miR-103-3p (IH-320345-05-0005)(SEQ ID NO: 5), miR-107-3p (IH-320348-05-0005)(SEQ ID NO: 6) and negative control (IN-001005-01-05) (https://www.biocompare.com/22445-RNA/4995709-miRIDIAN-microRNA-Hairpin-Inhibitor-Negative-Control-1-5-nmol/#productspecs) (Dharmacon Inc.) were used in an attempt to rescue LRP1 expression. All transfections were done using RNAiMAX (Invitrogen) as per manufacturer's recommended protocol. Briefly, ECs were plated at 50% confluency in 6-well plates followed by co-transfection with either 100 nM of 103-3p and 107-3p mimics or antagomirs along with their respective negative controls. After 12-hours, antagomir-treated cell groups were further treated with 10 uM human amylin for 24-hours. After 36-hours of transfection, cells were harvested for Western blot analysis.
In immunofluorescence experiments, formalin-fixed, paraffin-embedded human brain tissue was used and processed as previously described^16,18,39, brain capillaries from HIP and WT rats isolated as previously described^18. and cultured ECs. Anti-amylin (1:200; clone E5; SC-377530; Santa Cruz), anti-collagen IV (1:500; ab6586; abcam), anti-alpha smooth muscle actin-Alexa Fluor 405 (1:200; ab210128, abcam), anti-caveolin-1 (1:100; sc-894; Santa Cruz, Tex.), anti-LRP1 (1:500; sc-57351; Santa Cruz), anti-4HNE (1:200; ab46545; abcam) were the primary antibodies. Secondary antibodies were: Alexa Fluor 488 conjugated anti-mouse IgG (1:300; A11029; Invitrogen), Alexa Fluor 568 conjugated anti-rabbit IgG (1:200; A11036; Invitrogen), Alexa Fluor 568 conjugated anti-mouse IgG (1:300; A11004; Invitrogen). Nuclei were counterstained with DAPI mounting media. For triple staining of human brain tissues, smooth muscle actin-Alexa Fluor 405 antibody was added after staining with human amylin and collagen IV; DAPI free mounting media was used. For Thioflavin S staining, after secondary antibody incubation, brain slides were incubated in 0.5% Thioflavin S for 30 minutes at room temperature. Slides were then incubated for 3 minutes in 70% ethanol, 5 minutes in 0.2% Sudan black before washing and mounting. Immunocytochemistry was performed as described previously (39, 40).
Western blot analysis was performed on isolated brain capillaries, brain tissue homogenate and plasma from rats. Tissues were processed as described previously^16,18,28,39. RIPA buffer with 2% SDS was used to retrieve Aβ monomers from frozen brain samples^41. […]

miR-103 and miR-107 = miR-103 and miR-107 expression in ECs by qRT-PCR; assay type: cell-based, rat; conditions: ECs incubated with human amylin
From the text: as §1

[1] = tested on: rat brain microvascular endothelial cells; assay: MTS cytotoxicity assay on ECs; assay type: cell-based; conditions: 500 nM, 1 μM, 5 μM and 10 μM, 24 hours
From the text: CellTiter 96® AQueous One Solution Cell Proliferation Assay (MTS) (Promega) was used to assess cytotoxicity of aggregated amylin on the EC monolayer.

EC monolayer [2] = assay: Aβ42 transcytosis across the in vitro BBB model; assay type: cell-based, rat; conditions: 10 μM at the luminal side for 24 hours, then Aβ42-FAM at the abluminal side for 1 hour; vs vehicle; P<0.05
Protocol: In vitro BBB model of Aβ42 transcytosis with amylin-induced stress at the blood side. An in vitro BBB model described previously^37 was used with modifications related to amylin deposition on the EC monolayer and consequent effects on the Aβ transport across the EC monolayer. Briefly, primary rat brain microvascular endothelial cells (Cell Applications Inc) were plated on 24-well Transwell-Clear inserts with 0.4 μm pore polycarbonate membrane (Costar, Corning, N.Y., USA) and primary rat brain astrocytes (Sigma) were cultured at the bottom wells. Barrier integrity was measured from the trans-endothelial electrical resistance (TEER) as described previously^37,38 using the EVOM2 meter with STX-3 electrodes (World Precision Instruments). Maximum TEER was achieved within 8-10 days in culture. BBB permeabilities to human amylin (10 μM; Anaspec; AS-60254-1), rat amylin (10 μM; American Peptide) and DMSO (1 mM; vehicle) were assessed using FITC-Dextran 4 kDa (Fisher Scientific) diluted in Hank's Balanced Salt Solution (HBSS) buffer with 0.1% BSA (HBSS-BSA) as a paracellular diffusion marker. Permeability coefficients were calculated using the formula; P=(ΔQ/Δt)/(A*C0), (ΔQ/Δt)=rate of FITC-Dextran change; A=surface area of insert (0.33cm^2); C0=Initial FITC-Dextran input. […]

EC monolayer [3] = assay: Structural integrity of the EC monolayer in the in vitro BBB model (TEER, FITC-Dextran, morphology); assay type: cell-based, rat; conditions: 10 μM, 24 hours
Protocol: In vitro BBB model of Aβ42 transcytosis with amylin-induced stress at the blood side. An in vitro BBB model described previously^37 was used with modifications related to amylin deposition on the EC monolayer and consequent effects on the Aβ transport across the EC monolayer. Briefly, primary rat brain microvascular endothelial cells (Cell Applications Inc) were plated on 24-well Transwell-Clear inserts with 0.4 μm pore polycarbonate membrane (Costar, Corning, N.Y., USA) and primary rat brain astrocytes (Sigma) were cultured at the bottom wells. Barrier integrity was measured from the trans-endothelial electrical resistance (TEER) as described previously^37,38 using the EVOM2 meter with STX-3 electrodes (World Precision Instruments). Maximum TEER was achieved within 8-10 days in culture. BBB permeabilities to human amylin (10 μM; Anaspec; AS-60254-1), rat amylin (10 μM; American Peptide) and DMSO (1 mM; vehicle) were assessed using FITC-Dextran 4 kDa (Fisher Scientific) diluted in Hank's Balanced Salt Solution (HBSS) buffer with 0.1% BSA (HBSS-BSA) as a paracellular diffusion marker. Permeability coefficients were calculated using the formula; P=(ΔQ/Δt)/(A*C0), (ΔQ/Δt)=rate of FITC-Dextran change; A=surface area of insert (0.33cm^2); C0=Initial FITC-Dextran input.

[4] = tested on: rat brain microvascular ECs; assay: Lipid peroxidation and ROS in cultured rat brain microvascular ECs; assay type: cell-based; conditions: 10 μM amylin, 24-hour incubation
Protocol: Lipid peroxidation and ROS were measured in cultured rat brain microvascular ECs using previously published protocols^26,39.

Substance: human amylin
- LRP1 mRNA levels (LRP1 mRNA): greatly elevated
- reduction of LRP1 expression (LRP1; 10 μM): more than 50%
- LRP1 protein levels against concentration (LRP1; various concentrations (500 nM to 10 μM)): decreased with increasing concentrations
- miR-103 and miR-107 levels (miR-103 and miR-107): elevated levels of miR-103 and miR-107
- viability of the ECs [1]: not significant; also recorded: not affected
- reduction of the Aβ transcytosis quotient (EC monolayer [2]): 20+5%
- EC monolayer morphology (EC monolayer [3]): neither the intercellular space, as assessed from FITC-dextran permeability (FIG. S4C-D), nor EC monolayer morphology (FIG. 18E) were significantly altered
- TEER (EC monolayer [3]): decreased
- intercellular space assessed from FITC-dextran (4 kDa) permeability (EC monolayer [3]): neither the intercellular space, as assessed from FITC-dextran permeability (FIG. S4C-D), nor EC monolayer morphology (FIG. 18E) were significantly altered
- generation of ROS [4]: increased generation of ROS
- lipid peroxidation of the EC membranes [4]: lipid peroxidation of the EC membranes
